# Results published in article PMC7265429, “Characterization of a new small-molecule inhibitor of HDAC6 in glioblastoma” (Cell Death & Disease, 2020).
# Tested on: GNS166 cells
# Assay: Microarray whole-transcriptome gene expression analysis
# Assay type: cell-based, human
# Method: Whole-transcriptome analysis was performed from 300 ng of RNA using HuGene-2_0-st-v1 expression array (Affymetrix), which covers 48,226 transcripts. Raw data were first checked for quality purposes through the Affymetrix® Expression Console™ Software v1.4.1 and TAC software v4.0. Then, data were normalized using the Robust Multi-array Average (RMA) and analyzed by Limma tool. Probesets with FDR-corrected p-values smaller than 0.05 were selected. Functional enrichment on Gene Ontology (GO) biological processes was performed on a smaller subset of the differentially expressed genes (corrected p-value < 0.001) by means of Broad Institute GSEA. […] The data that support this study have been deposited in NCBI´s Gene Expression Omnibus and are accessible through GEO series accession number GSE143887.
compound,measurement,setting,value
"O=C(CCCCCCC(=O)Nc1ccccc1)NO [SAHA, Suberoylanilide hydroxamic acid]",logFC LIPA,"5 µM SAHA vs DMSO, transcript TC1000012577.hg.1",1.686
same,logFC ARNTL,"5 µM SAHA vs DMSO, transcript TC1100006899.hg.1",1.497
same,logFC C11orf74,"5 µM SAHA vs DMSO, transcript TC1100007307.hg.1",1.1776
same,logFC FAM111B,"5 µM SAHA vs DMSO, transcript TC1100007727.hg.1",1.402
same,logFC CYP2R1,"5 µM SAHA vs DMSO, transcript TC1100010185.hg.1",1.194
same,logFC SESN3,"5 µM SAHA vs DMSO, transcript TC1100012019.hg.1",1.415
same,logFC MMP12,"5 µM SAHA vs DMSO, transcript TC1100012134.hg.1",1.855
same,logFC BIRC3,"5 µM SAHA vs DMSO, transcript TC1100013087.hg.1",2.344
same,logFC CCND2,"5 µM SAHA vs DMSO, transcript TC1200006555.hg.1",1.786
same,logFC GPRC5A,"5 µM SAHA vs DMSO, transcript TC1200006896.hg.1",1.771
same,logFC STK38L,"5 µM SAHA vs DMSO, transcript TC1200007146.hg.1",1.792
same,logFC LRP1,"5 µM SAHA vs DMSO, transcript TC1200007861.hg.1",1.377
same,logFC TCP11L2,"5 µM SAHA vs DMSO, transcript TC1200008726.hg.1",1.788
same,logFC SLC2A3,"5 µM SAHA vs DMSO, transcript TC1200009800.hg.1",1.712
same,logFC ABCD2,"5 µM SAHA vs DMSO, transcript TC1200010413.hg.1",2.708
same,logFC NELL2,"5 µM SAHA vs DMSO, transcript TC1200010490.hg.1",2.463
same,logFC FAIM2,"5 µM SAHA vs DMSO, transcript TC1200010642.hg.1",1.773
same,logFC AGAP2,"5 µM SAHA vs DMSO, transcript TC1200010976.hg.1",1.559
same,logFC KITLG,"5 µM SAHA vs DMSO, transcript TC1200011460.hg.1",1.767
same,logFC LUM,"5 µM SAHA vs DMSO, transcript TC1200011495.hg.1",3.868
same,logFC FGD6,"5 µM SAHA vs DMSO, transcript TC1200011574.hg.1",1.639
same,logFC MGST1,"5 µM SAHA vs DMSO, transcript TC1200012597.hg.1",1.82
same,logFC CCNA1,"5 µM SAHA vs DMSO, transcript TC1300006879.hg.1",1.421
same,logFC SERTM1,"5 µM SAHA vs DMSO, transcript TC1300006883.hg.1",2.721
same,logFC NDFIP2,"5 µM SAHA vs DMSO, transcript TC1300007592.hg.1",1.353
same,logFC CLDN10,"5 µM SAHA vs DMSO, transcript TC1300007752.hg.1",1.556
same,logFC RAP2A,"5 µM SAHA vs DMSO, transcript TC1300007780.hg.1",1.182
same,logFC SLITRK6,"5 µM SAHA vs DMSO, transcript TC1300009394.hg.1",2.414
same,logFC KDELC1,"5 µM SAHA vs DMSO, transcript TC1300009674.hg.1",1.5525
same,logFC HSPA2,"5 µM SAHA vs DMSO, transcript TC1400007443.hg.1",3.285
same,logFC PPP4R4,"5 µM SAHA vs DMSO, transcript TC1400008058.hg.1",2.48
same,logFC TXNDC16,"5 µM SAHA vs DMSO, transcript TC1400009184.hg.1",1.763
same,logFC EGLN3,"5 µM SAHA vs DMSO, transcript TC1400010730.hg.1",2.2444
same,logFC CKMT1B,"5 µM SAHA vs DMSO, transcript TC1500007062.hg.1",2.569
same,logFC CKMT1A,"5 µM SAHA vs DMSO, transcript TC1500007067.hg.1",3.452
same,logFC IQCH,"5 µM SAHA vs DMSO, transcript TC1500007640.hg.1",1.591
same,logFC ARRDC4,"5 µM SAHA vs DMSO, transcript TC1500008470.hg.1",1.5
same,logFC GCOM1,"5 µM SAHA vs DMSO, transcript TC1500010744.hg.1",1.317
same,logFC ATP1B2,"5 µM SAHA vs DMSO, transcript TC1700006763.hg.1",3.1227
same,logFC TMEM107,"5 µM SAHA vs DMSO, transcript TC1700009676.hg.1",1.351
same,logFC CORO6,"5 µM SAHA vs DMSO, transcript TC1700010252.hg.1",1.546
same,logFC C1QL1,"5 µM SAHA vs DMSO, transcript TC1700010856.hg.1",1.605
same,logFC TTLL6,"5 µM SAHA vs DMSO, transcript TC1700011007.hg.1",1.858
same,logFC,"5 µM SAHA vs DMSO, transcript TC1700011261.hg.1",1.393
same,logFC TMEM241,"5 µM SAHA vs DMSO, transcript TC1800008281.hg.1",1.807
same,logFC REEP6,"5 µM SAHA vs DMSO, transcript TC1900006537.hg.1",1.987
same,logFC INAFM1,"5 µM SAHA vs DMSO, transcript TC1900008416.hg.1",2.5078
same,logFC PRKCG,"5 µM SAHA vs DMSO, transcript TC1900008825.hg.1",1.503
same,logFC RFPL4A,"5 µM SAHA vs DMSO, transcript TC1900008931.hg.1",3.505
same,logFC RFPL4AL1,"5 µM SAHA vs DMSO, transcript TC1900008932.hg.1",2.766
same,logFC KCNC3,"5 µM SAHA vs DMSO, transcript TC1900011194.hg.1",1.754
same,logFC FXYD7,"5 µM SAHA vs DMSO, transcript TC1900011710.hg.1",2.141
same,logFC RTBDN,"5 µM SAHA vs DMSO, transcript TC1900011892.hg.1",2.027
same,logFC RNF24,"5 µM SAHA vs DMSO, transcript TC2000008242.hg.1",1.55
same,logFC TASP1,"5 µM SAHA vs DMSO, transcript TC2000008436.hg.1",1.327
same,logFC FLRT3,"5 µM SAHA vs DMSO, transcript TC2000008445.hg.1",2.943
same,logFC CYP24A1,"5 µM SAHA vs DMSO, transcript TC2000009522.hg.1",1.58
same,logFC LCA5L,"5 µM SAHA vs DMSO, transcript TC2100008171.hg.1",1.839
same,logFC H1F0,"5 µM SAHA vs DMSO, transcript TC2200007318.hg.1",1.771
same,"logFC, unannotated transcript","DMSO vs SAHA, downregulated, transcript 23064072",-1.45
same,"logFC, unannotated transcript","DMSO vs SAHA, downregulated, transcript 23064958",-1.242
same,"logFC, unannotated transcript","DMSO vs SAHA, downregulated, transcript 23066344",-2.142
same,"logFC, unannotated transcript","DMSO vs SAHA, downregulated, transcript 23066350",-1.951
same,"logFC, unannotated transcript","DMSO vs SAHA, downregulated, transcript 23066369",-2.142
same,"logFC, unannotated transcript","DMSO vs SAHA, downregulated, transcript 23066376",-1.488
same,"logFC, unannotated transcript","DMSO vs SAHA, downregulated, transcript 23066377",-1.951
same,"logFC, unannotated transcript","DMSO vs SAHA, downregulated, transcript 23068519",-1.54
same,"logFC, unannotated transcript","DMSO vs SAHA, downregulated, transcript 23071518",-1.2407
same,"logFC, unannotated transcript","DMSO vs SAHA, downregulated, transcript 23074026",-1.4
same,"logFC, unannotated transcript","DMSO vs SAHA, downregulated, transcript 23074907",-1.601
same,"logFC, unannotated transcript","DMSO vs SAHA, downregulated, transcript 23075457",-1.338
same,"logFC, unannotated transcript","DMSO vs SAHA, downregulated, transcript 23075879",-1.002
same,"logFC, unannotated transcript","DMSO vs SAHA, downregulated, transcript 23076022",-1.002
same,"logFC, unannotated transcript","DMSO vs SAHA, downregulated, transcript 23076173",-1.06
same,"logFC, unannotated transcript","DMSO vs SAHA, downregulated, transcript HTA2-pos-3662482_st",-0.977
same,"logFC, unannotated transcript","DMSO vs SAHA, downregulated, transcript HTA2-pos-3671550_st",-1.877
same,"logFC, unannotated transcript","DMSO vs SAHA, downregulated, transcript HTA2-pos-3671554_st",-1.443
same,"logFC, unannotated transcript","DMSO vs SAHA, downregulated, transcript HTA2-pos-PSR17008077.hg.1",-1.062
same,"logFC, unannotated transcript","DMSO vs SAHA, downregulated, transcript HTA2-pos-PSR17008082.hg.1",-1.0258
same,"logFC, unannotated transcript","DMSO vs SAHA, downregulated, transcript HTA2-pos-PSR17013958.hg.1",-1.428
same,logFC ARAF,"DMSO vs SAHA, downregulated, transcript TC0X00007148.hg.1",-1.073
same,logFC RBM3,"DMSO vs SAHA, downregulated, transcript TC0X00007195.hg.1",-1.375
same,logFC SUV39H1,"DMSO vs SAHA, downregulated, transcript TC0X00007200.hg.1",-1.395
same,logFC PLP2,"DMSO vs SAHA, downregulated, transcript TC0X00007222.hg.1",-1.034
same,logFC PBDC1,"DMSO vs SAHA, downregulated, transcript TC0X00007686.hg.1",-1.452
same,logFC MID2,"DMSO vs SAHA, downregulated, transcript TC0X00008078.hg.1",-1.792
same,logFC HMGB3,"DMSO vs SAHA, downregulated, transcript TC0X00008724.hg.1",-1.132
same,logFC TAF9B,"DMSO vs SAHA, downregulated, transcript TC0X00010136.hg.1",-1.5452
same,logFC STS,"DMSO vs SAHA, downregulated, transcript TC0X00011259.hg.1",-1.335
